Source: the SangsterLogP compilation

Assay: method code SF, from Hansch, C. & Leo, A. (1987). Log P database [Dataset]. Pomona College Medicinal Chemistry Project.

For CCc1cnc(C=Cc2ccc([N+](=O)[O-])o2)nc1, the logP was 1.55.

In the case of CNP(=O)(OC)Oc1cc(Cl)c(Cl)cc1Cl (stereo not given), the logP is reported as 3.06.

Cc1cccc2cccnc12 gave a logP of 2.6.

O=C(O)c1ccccc1-c1ccccc1 gave a logD (pH 1.0) of 2.89.

Work on C[C@@H]1C[C@H]2[C@@H]3C[C@H](F)C4=CC(=O)C(Cl)=C[C@]4(C)[C@@]3(F)[C@@H](O)C[C@]2(C)[C@@]1(O)C(=O)CO yielded a logP of 2.58.

O=[N+]([O-])/C=C/c1ccc(Cl)cc1Cl showed a logP of 3.26.

NC(=O)c1ccc(C(O)C(CO)NC(=O)C(Cl)Cl)cc1 (stereo not given) gave a logP of -0.48.

In the case of COc1ccc(/N=N/N(C)C(C)=O)cc1, the logP is reported as 2.61.

CON(C)C(=O)Nc1cccc(OCc2ccccc2)c1 gave a logP of 3.11.

Compound O=[N+]([O-])c1ccccc1C(F)(F)F has a logP of 2.58.

Work on O=C(C(=O)c1ccccc1)c1ccccc1 yielded a logP of 3.38.

CN(C)c1ccc([N+](=O)[O-])cc1 showed a logD (pH 7.0) of 2.27.

Work on CCCC(=O)Nc1ccc(Cl)c(Cl)c1 yielded a logP of 3.77.

For O=C(O)CSc1ccccc1, the logD (pH 1.0) was 1.88.

Cc1c(NCC(C)C)c(=O)n(-c2ccccc2)c(=O)n1C showed a logD (pH 7.4) of 1.48.

With Cc1ccoc1CN(C)C the logP was 1.63.

Work on CNC(=O)CSP(=S)(OC)OC yielded a logP of 0.8.

O=c1[nH]ncc2ccccc12 showed a logP of 0.75.

In the case of CC(=O)CCN(C)c1ccc(S(=O)(=O)N(C)C)cc1, the logP is reported as 0.23.

With O=NN(CCCl)C(=O)NC1CS(=O)(=O)CS(=O)(=O)C1 the logP was -0.94.

O=Cc1ccc([N+](=O)[O-])cc1 showed a logD (pH 7.0) of 1.56.

With O=c1cc[nH]cn1 the logP was -1.38.

Work on CN(C)S(=O)(=O)c1ccccc1 yielded a logP of 1.35.

Compound O=C(O)CSCc1ccccc1 has a logP of 2.1.

Work on COC(OC)OC yielded a logD (pH 13.0) of 0.25.

CNc1ncnc2ccsc12 gave a logD (pH 7.0) of 1.43.

OC(c1ccccc1)(C(F)(F)F)C(F)(F)F showed a logP of 3.41.

With O=CC(CO)OC(C=O)n1cnc2c(O)ncnc21 (stereo not given) the logP was -2.11.

For CCOCCOC(=O)C(C#N)=C(CC)Nc1ccc([N+](=O)[O-])cc1, the logP was 2.6.

With CCCCC1CC(C(=O)NC(C(C)O)C2OC(SC)C(O)C(O)C2O)N(CC)C1 (stereo not given) the logD (pH 12.0) was 1.76.

Compound CNP(=O)(OC)Oc1ccc(OC)cc1 (stereo not given) has a logP of 1.06.

Work on CCOc1cc(Oc2ccc(C(F)(F)F)cc2Cl)ccc1[N+](=O)[O-] yielded a logD (pH 5.9) of 4.7.

For CNC(=O)Oc1cc(C)c(Cl)cc1C, the logP was 2.95.

Work on NC(=O)c1ccc(O)cc1 yielded a logP of 0.33.

c1ccc(SSc2ccccc2)cc1 showed a logP of 4.41.

For CN(N=O)C(=O)N[C@H]1C(O)O[C@H](CO)[C@@H](O)[C@@H]1O (stereo not given in full), the logP was -1.45.

Brc1ccc2ncccc2c1 showed a logD (pH 7.0) of 2.83.

COC(=O)C[C@](O)(CCC(C)(C)O)C(=O)O[C@@H]1C(OC)=C[C@]23CCCN2CCc2cc4c(cc2[C@H]13)OCO4 gave a logP of 0.65.

NC(=O)Nc1cnc2ccccc2n1 gave a logP of 1.3.

Compound C(#Cc1ccccc1)c1ccccc1 has a logP of 4.78.

With CC(=O)Oc1cccc(Cl)c1 the logP was 2.32.

Work on CN(C(=O)CC[N+](=O)[O-])c1ccc(S(=O)(=O)N(C)C)cc1 yielded a logP of 0.3.

COP(=O)(OC)OC gave a logP of -0.52.

For CCCOc1ccccc1, the logP was 3.18.

Work on COP(=O)(OC)Oc1ccccc1 yielded a logP of 1.22.

Work on FC(F)(F)c1ccc2cccnc2c1 yielded a logD (pH 7.0) of 3.02.

In the case of COc1ccccc1/N=N/N(C)C, the logD (pH 7.4) is reported as 2.34.

For c1cncc([C@@H]2CCCN2)c1, the logD (pH 11.0) was 0.17.

With OCCOCCN1CCN(CCCN2c3ccccc3Sc3ccc(C(F)(F)F)cc32)CC1 the logP was 4.49.

In the case of CCCCSc1ccccc1OC(=O)NC, the logP is reported as 2.98.

Oc1cccnc1 showed a logP of 0.48.

In the case of N#CN=[N+]([O-])c1ccc([N+](=O)[O-])cc1, the logP is reported as 1.51.

In the case of C/C=C/C, the logP is reported as 2.31.

O=C(O)COc1ccc(Cl)c(I)c1 gave a logP of 3.1.

For CC(=O)Nc1cccc(NC(C)=O)c1, the logP was 0.5.

With CCCCCC1CN[C@H](C(=O)NC(C(C)Cl)[C@H]2O[C@H](SC)[C@H](O)[C@@H](O)[C@H]2O)C1 (stereo in doubt) the logD (pH 12.0) was 2.74.

With COC(=O)Cc1ccsc1 the logP was 1.46.

With Cc1cc(C)cc(OC(=O)CNC(=O)c2ccccc2)c1 the logP was 3.4.

Compound CN(C)Cc1cccnc1 has a logD (pH 11.0) of 0.49.

With CCc1ccccc1OCC(=O)O the logD (pH 1.0) was 2.53.

Compound CCOC(=O)C(=Cc1cccc(OCC)c1)C(C)=O has a logP of 2.71.

In the case of NC(=O)c1nc[nH]c1N=NN(CCO)Cc1ccccc1, the logD (pH 4.2) is reported as 0.99.

For COc1cc(S(C)=O)ccc1-c1cn2ccnc(OC)c2n1 (stereo not given), the logP was 1.49.

With O=C(Nc1ccccc1)N(c1ccccc1)c1ccccc1 the logP was 3.28.

In the case of CNc1ccccn1, the logP is reported as 1.07.

With FC(F)(F)Oc1ccccc1 the logP was 3.17.

Work on CCCCC1C(=O)NC(=O)NC1=O yielded a logP of 0.77.

CCOc1ccccc1 showed a logP of 2.51.

CC(=O)CF gave a logP of -0.39.

CC1=Nc2c(I)cc(Cl)cc2S(=O)(=O)N1 gave a logP of 1.81.

COc1cccc(C=C(C(C)=O)C(C)=O)c1 gave a logP of 1.79.

With Nc1nc(S)c2ncn(C3CC(O)C(CO)O3)c2n1 (stereo not given) the logD (pH 7.4) was -0.56.

O=C[C@H](O)[C@@H](O)[C@H](O)[C@H](O)CO gave a logD (pH 7.5) of -1.88.

Work on CN(C=O)c1ccccc1 yielded a logP of 1.09.

Work on CP(C)c1ccccc1 yielded a logP of 2.57.

For O=c1c2ccccc2ncn1O, the logP was -0.45.

For CC1=C(C(=O)O)N2C(=O)[C@@H](NC(=O)Cc3cccs3)[C@H]2SC1, the logD (pH 3.0) was 0.61.

With O=NN(CCCl)C(=O)NC12CC3CC(CC(C3)C1)C2 the logP was 3.56.

With FC(F)(F)Br the logP was 1.86.

Compound CCCCNP(=O)(OC)Oc1cc(Cl)c(Cl)cc1Cl (stereo not given) has a logP of 4.18.

In the case of CCOC(=Cc1ccccc1)C(=O)NC(C)CC (stereo not given), the logP is reported as 3.2.

For C1OCOCO1, the logP was -0.43.

CCOc1ccc(OC(C)=O)cc1 gave a logP of 1.95.

For COc1ccc(-c2ncc[nH]2)c(OC)c1, the logP was 1.72.

Compound Cc1ccccc1OCC(O)CO (stereo not given) has a logP of 1.41.

In the case of Cc1nnc(C)s1, the logP is reported as 0.03.

In the case of C=CCNC(=O)NCC=C, the logP is reported as 0.64.

With Cc1c(N(C)C)c(=O)n(C)c(=O)n1-c1ccc(Cl)cc1 the logD (pH 7.4) was 2.32.

Compound CCOC(N)=O has a logP of -0.15.

With c1cnc2nccnc2c1 the logP was -0.04.

Work on O=C(Nc1ccccc1)c1cc(N2CC2)c([N+](=O)[O-])cc1[N+](=O)[O-] yielded a logP of 2.23.

For CN1CCC(CN2c3ccccc3Sc3ccccc32)C1 (stereo not given), the logD (pH 8.7) was 3.87.

For c1ccc2[nH]c(CCCCc3nc4ccccc4[nH]3)nc2c1, the logP was 1.59.

O=C(O)C(Cl)(Cl)Cl showed a logP of 1.33.

Work on Cc1csc(C=Cc2ccc([N+](=O)[O-])o2)n1 yielded a logP of 1.53.

CCOC(=O)NC1=C(N2CC2)C(=O)C(NC(=O)OCC)=C(N2CC2)C1=O gave a logP of 0.05.

For c1ccc(CSc2nnc[nH]2)cc1, the logP was 1.45.

Compound CCOC(CCC#N)OCC has a logP of 0.75.

CC(C)C(=O)Nc1ccccc1 gave a logP of 1.95.

O=C(/C=C/c1ccccc1)Nc1ccccc1 showed a logP of 3.61.

Work on Brc1cccs1 yielded a logP of 2.75.

Compound Nc1cn[nH]c1 has a logD (pH 13.0) of -1.09.

For O=C(O)c1cc2ccccc2[nH]1, the logD (pH 2.0) was 2.31.

CC(=O)C(=Cc1ccc(C)cc1)C(C)=O showed a logP of 2.14.

For OCC(F)(F)C(F)(F)F, the logP was 1.23.

For CCOP(=O)(OCC)Oc1ccc(SC)cc1Cl, the logP was 3.05.

CCC1(C)CCC(=O)NC1=O (stereo not given) showed a logP of 0.23.

NC(=S)NN=Cc1cccc(O)c1 gave a logP of 1.61.

Compound CC#CC has a logP of 1.46.

With NC1=NC(C(F)(F)F)(C(F)(F)F)NC1(C(F)(F)F)C(F)(F)F the logP was 3.35.

Compound N#CCC(N)=C(C#N)C#N has a logP of -0.13.

Work on COc1ccccc1CO yielded a logD (pH 7.0) of 1.13.

CN(C)Cc1ccco1 showed a logP of 1.19.

CON(C)C(=O)Nc1cccc(C#N)c1 gave a logP of 1.33.

With CCCN(CCC)/N=C/c1c2c(O)c3c(O)c(C)c4c(c3c1O)C(=O)C(C)(O/C=C\C(OC)C(C)C(OC(C)=O)C(C)C(O)C(C)C(O)C(C)/C=C\C=C(C)C(=O)N2)O4 (stereo not given) the logP was 3.83.

For O=C(CNC(=O)c1ccccc1)Oc1ccccc1, the logP was 2.31.

Work on CCN(CC)c1ccc(CO)cc1 yielded a logP of 2.29.

Work on CC(C(=O)N(C)c1ccc(S(=O)(=O)N(C)C)cc1)c1ccccc1 (stereo not given) yielded a logP of 1.73.

Compound O=C1c2c(O)ccc(O)c2C(=O)c2c(NCCNCCO)ccc(NCCNCCO)c21 has a logP of 0.07.

Work on CC(C)Oc1cn[nH]c1 yielded a logP of 1.13.

With O=C(O)Cc1c[nH]c2ccccc12 the logP was 1.41.

For CCOC(=O)Cn1ccnc1C=Cc1ccc([N+](=O)[O-])o1, the logP was 1.27.

Cn1cnc2ccccc2c1=O showed a logP of 0.69.

In the case of CC(=O)C(=Cc1ccc(Br)cc1)C(C)=O, the logP is reported as 2.75.

For c1cn[nH]n1, the logP was -0.29.

With O=C(O)CCS the logP was 0.43.

CC(=O)c1ccccc1Cl showed a logP of 2.09.

Compound CCCCC1OC(=O)c2cc(N(CCO)CCO)ccc21 (stereo not given) has a logP of 1.34.

In the case of COc1ccc(OC)c(Cc2cnc3nc(N)nc(N)c3c2C)c1, the logD (pH 13.0) is reported as 2.13.

Work on Cc1c(N(C)C)c(=O)n(-c2ccccc2)c(=O)n1CCO yielded a logD (pH 7.4) of 0.85.

O=C1C[C@@H]2OCC=C3CN4CC[C@]56c7ccccc7N1[C@H]5[C@H]2[C@H]3C[C@H]46 gave a logP of 1.93.

CC(C)C(=O)Nc1ccc(Cl)c(Cl)c1 gave a logP of 3.72.

With Cc1cc(COc2ccccc2C(C)C)c(O)c(C(=O)O)c1 the logP was 4.91.

In the case of C=CCc1ccccc1, the logP is reported as 3.23.

Work on Nc1cc(=O)[nH]cn1 yielded a logP of -0.99.

For CN(Cc1ccc(C#N)cc1)/N=N/c1ccc(C(=O)O)cc1, the logP was 3.6.

In the case of ICCCc1ccccc1, the logP is reported as 3.9.

C=C(C)CC1(CC)C(=O)NC(=S)NC1=O gave a logP of 2.19.

Work on COc1cc(C=NO)ccc1OCCOC(=O)c1cccc(Cl)c1 yielded a logP of 3.94.

With NC(=O)NCc1ccccc1 the logP was 0.73.

Work on Cc1cccc(C(N)=O)c1 yielded a logP of 1.18.

CC(C)(C)C gave a logP of 3.11.

With OCCOc1ccccc1 the logP was 1.16.

O=C(O)c1ccccc1S showed a logD (pH 1.0) of 2.39.

Compound CCCCSC(C)(C)C(N)=O has a logP of 1.81.

With CC(=O)c1c(O)oc(=O)c(/C(C)=N/c2ccccc2)c1O the logD (pH 1.0) was 2.58.

For CNC(=O)Oc1cc(C)c(Cl)cc1Cl, the logP was 3.

Work on CNC(=O)Oc1cc(C)c(C)cc1C yielded a logP of 2.52.

ClC(Cl)(Cl)c1ccc(C(Cl)(Cl)Cl)cc1 gave a logP of 4.62.

COP(=O)(NC(C)(C)C)Oc1cc(Cl)c(Cl)cc1Cl (stereo not given) gave a logP of 3.83.

In the case of O=S(=O)(Oc1ccccc1)c1ccccc1, the logP is reported as 3.06.

FC(F)OC(Cl)C(F)(F)F (stereo not given) showed a logP of 2.06.

Work on Cc1ccc(C=C(C#N)C#N)cc1 yielded a logP of 2.4.

Work on Cc1ccc2[nH]c(CCCCc3nc4cc(C)ccc4[nH]3)nc2c1 yielded a logP of 1.64.

For CCOCCOC(=O)C(C#N)=C(CC)Nc1ccc(N)cc1, the logP was 2.27.
